Like-named read-outs stand apart in the source and are kept apart here.
Tested on: subcutaneous MCF7-Y537S human breast cancer cell line xenograft
Settings: for Tumor volume changes from baseline: Median / Regressions Complete / Regressions Partial / Median % of regressions on day 22 / Unscheduled death (Day of death): PO; for Tumor volume changes from baseline: Median: n = 7; for Anti-tumor effect on tumor growth (statistical significance versus control): two-way ANOVA, contrast analysis; for Regressions Complete: animals with complete regression / group of 7; for Regressions Complete / Regressions Partial / Unscheduled death (Day of death): 22 days; for Regressions Partial: animals with partial regression / group of 7; for ΔT/ΔC in % at day 22: ratio of median tumor volume changes from baseline, treated vs control; for ΔT/ΔC in % at day 22 / Median % of regressions on day 22 / Biological Interpretation: day 22; for Biological Interpretation: based on ΔT/ΔC and statistical analysis; for Unscheduled death (Day of death): deaths / group of 7
Method: Anti-tumor efficacy was evaluated by tumor volume measurement.
Female BALB/c nude mice were obtained from Shanghai Sino-British SIPPR/BK Laboratory Animal Co., LTD (Shanghai, CHINA). Animals were allowed to acclimate for at least four days before the study enrollment. Mice were 6 to 8 weeks old and weighed between 18 and 24 grams at the beginning of the treatments. These animals were housed under conditions outlined in the guidelines approved by the Institutional Animal Care and Use Committee (IACUC) of WuXi AppTec following the guidance of the Association for Assessment and Accreditation of Laboratory Animal Care (AAALAC).
Parental MCF7 cells were obtained from the American Type Culture Collection (ATCC® HTB-22™). MCF7-Y537S (ESR1) cell line was MCF7 cells expressing the ER. Y537S variant that was generated by Sanofi Biology Discovery Group. Y537S mutation was introduced in ESR1 construct (GenBank NM_000125.3) by site directed mutagenesis (Toy W. et al., Cancer Discovery, 2017, 7, 277-287). The construct was transfected in MCF7 cells, which were selected for their growth in absence of estradiol. MCF-Y537S is an ESR1 mutation that confers estrogen-independent activity to ERα(Estrogen Receptor alpha) and contributes to endocrine resistant disease (Robinson D.R. et al., Nat Genet., 2013, 45 (12), 1446-1451). The cells were grown in Eagle's Minimum Essential Medium (EMEM) supplemented with 10% fetal bovine serum (FBS), human Insulin, in 5% CO2 at 37° C. The cells were harvested in 0.25% Trypsin EDTA and washed by Phosphate Buffered Saline (PBS) and re-suspended in PBS with 75% Matrigel. The cells (20×10^6 cells/per mouse) were subcutaneously (SC) implanted into the right flank of female nude mice.
When the MCF7-Y537S tumors were established, the tumors were reserved as tumor stocks for fragment implantation. The tumors were serially propagated through fragment tissue transplantation subcutaneously. The fragment tumor tissues were subcutaneously implanted into the right flank of female nude mice. Twenty-eight mice were assigned in this experiment.
The animals required for experiment (plus extra) were pooled and implanted with MCF7-Y537S tumor fragment tissues. […] Animal body weight was assessed daily.
The dosages are expressed in mg/kg and based on daily body weight per animal. Vehicle treated animals were used as controls. Mice were checked daily for adverse clinical reactions. Individual mice were weighed daily until the end of the experiment. Mice would be euthanized when morbid or weight loss ≥20% was observed. Tumors were measured with a caliper twice weekly until final sacrifice. When a tumor size reached approximately 2000 mm^3 or when there are animal health issues (40% area of a tumor ulcerated), animals were euthanized, and date of death recorded. Solid tumor volumes were estimated from two-dimensional tumor measurements and calculated according to the following equation: […]
A dosage producing either 15% body weight loss during 3 consecutive days for an individual mouse, 20% body weight loss during 1 day, or 10% or more drug related deaths, was considered an excessively toxic dosage, unless under certain circumstances bodyweight loss or animal death can be considered non-drug related. […] Animal body weight included the tumor weight.
The primary efficacy end points include tumor volume changes from baseline summarized by the ratio of medians of tumor volume changes from baseline between the treated and control groups (ΔT/ΔC). Changes in tumor volume for each treated (T) and control (C) group were calculated for each animal on each day by subtracting the tumor volume on the day of first treatment (staging day) from the tumor volume on the specified observation day.

[1] = Day 4, amcenestrant 20 mg/kg BID, ribociclib 100 mg/kg QD
[2] = Day 8, amcenestrant 20 mg/kg BID, ribociclib 100 mg/kg QD
[3] = Day 11, amcenestrant 20 mg/kg BID, ribociclib 100 mg/kg QD
[4] = Day 15, amcenestrant 20 mg/kg BID, ribociclib 100 mg/kg QD
[5] = Day 22, amcenestrant 20 mg/kg BID, ribociclib 100 mg/kg QD
[6] = amcenestrant 20 mg/kg BID, ribociclib 100 mg/kg QD, PO for 22 days
[7] = amcenestrant 20 mg/kg BID, ribociclib 100 mg/kg QD
[8] = PO for 22 days, amcenestrant 20 mg/kg BID, ribociclib 100 mg/kg QD

| Compound | Tumor volume changes from baseline: Median [1] | Tumor volume changes from baseline: Median [2] | Tumor volume changes from baseline: Median [3] | Tumor volume changes from baseline: Median [4] | Tumor volume changes from baseline: Median [5] | Body weight loss [6] | Tolerability [6] | Anti-tumor effect on tumor growth (statistical significance versus control) [6] | Regressions Complete [7] | Regressions Partial [7] | ΔT/ΔC in % at day 22 [8] | Median % of regressions on day 22 [7] | Biological Interpretation | Unscheduled death (Day of death) [7] | Tumor volume changes from baseline: Median (Day 18, amcenestrant 20 mg/kg BID, ribociclib 100 mg/kg QD) |
| --- | --- | --- | --- | --- | --- | --- | --- | --- | --- | --- | --- | --- | --- | --- | --- |
| CN(C)C(=O)c1cc2cnc(Nc3ccc(N4CCNCC4)cn3)nc2n1C1CCCC1.O=C(O)CCC(=O)O [ribociclib, 7-cyclopentyl-N,N-dimethyl-2-[[5-(1-piperazinyl)-2-pyridinyl]amino]-7H-pyrrolo[2,3-d]pyrimidine-6-carboxamide] | 44.0 mm^3 | 103.0 mm^3 | 183.0 mm^3 | 292.0 mm^3 | 423.0 mm^3 | no significant body weight loss | well-tolerated | no statistically significant anti-tumor efficacy | 0/7 | 0/7 | 40% | 0% | Inactive* | 0/7 |  |
| O=C(O)c1ccc2c(c1)CCCC(c1ccc(Cl)cc1Cl)=C2c1ccc(O[C@H]2CCN(CCCF)C2)cc1 [SAR439859, 6-(2,4-dichlorophenyl)-5-[4-[(3S)-1-(3-fluoropropyl)pyrrolidin-3-yl]oxyphenyl]-8,9-dihydro-7H-benzo[7]annulene-2-carboxylic acid] | 43.0 mm^3 | 121.0 mm^3 | 214.0 mm^3 | 360.0 mm^3 | 501.0 mm^3 |  |  | no statistically significant anti-tumor effect | 0/7 | 0/7 | 47% | 0% | Inactive* | 0/7 | 392.0 mm^3 |
